According to US20250262279A1, “DOSE REGIMEN FOR LONG-ACTING GLP1/GLUCAGON RECEPTOR AGONISTS” (Boehringer Ingelheim International GmbH, priority 2021, published 2025):
Read-outs that look alike come from different tables or passages of the source.

Key:
Type in all cases: in vivo
[1] = Example 1: plasma pharmacokinetics; details: human, sc; for Cmax: read-out: Cmax (gMean)
[2] = plasma half-life in humans; details: human, estimated
[3] = Example 2: plasma pharmacokinetics; details: human, sc, read-out: AUC0-168 (gMean)
Text: In Table 9, only the gMean PK parameters of subjects who followed the planned dose rising scheme are included. Following subcutaneous administration of Compound I, the gMean plasma AUC0-168 and Cmax increased with further weekly or twice weekly dosing.

`CC[C@H](C)[C@H](NC(=O)[C@H](Cc1ccccc1)NC(=O)[C@H](CC(=O)O)NC(=O)[C@H](CCCCN)NC(=O)[C@H](C)NC(=O)[C@H](C)NC(=O)[C@H](CCCNC(=N)N)NC(=O)[C@H](CCC(=O)O)NC(=O)[C@H](CC(=O)O)NC(=O)[C@H](CC(C)C)NC(=O)[C@H](Cc1ccc(O)cc1)NC(=O)[C@H](CCCCN)NC(=O)[C@H](CO)NC(=O)[C@H](Cc1ccc(O)cc1)NC(=O)[C@H](CC(=O)O)NC(=O)[C@H](CO)NC(=O)[C@@H](NC(=O)[C@H](Cc1ccccc1)NC(=O)[C@@H](NC(=O)CNC(=O)[C@H](CCC(N)=O)NC(=O)C1(NC(=O)[C@@H](N)Cc2c[nH]cn2)CCC1)[C@@H](C)O)[C@@H](C)O)C(=O)N[C@@H](CCCCNC(=O)CNC(=O)CNC(=O)[C@H](CO)NC(=O)CNC(=O)[C@H](CO)NC(=O)CNC(=O)CC[C@H](NC(=O)CCCCCCCCCCCCCCCCC(=O)O)C(=O)O)C(=O)N[C@@H](Cc1c[nH]c2ccccc12)C(=O)N[C@@H](CC(C)C)C(=O)N[C@@H](CCC(=O)O)C(=O)N[C@@H](CO)C(=O)N[C@@H](C)C(N)=O` [Compound I] gave an AUC(0-t) ([1]; 1.8 mg, Ex.1 weekly scheme 5, wk 6, 1.8 mg sc, read-out: AUC0-168 (gMean)) of 6.77 µM·h, a Cmax ([1]; 1.8 mg, Ex.1 weekly scheme 5, wk 6, 1.8 mg sc) of 63.3 nM and an AUC(0-t) ([1]; 2 mg, Ex.1 weekly scheme 2, wk 5, 2.0 mg sc, read-out: AUC0-168 (gMean)) of 6.55 µM·h. For the same molecule, the Cmax ([1]; 2 mg, Ex.1 weekly scheme 2, wk 5, 2.0 mg sc) was 57.7 nM, the AUC(0-t) ([1]; 2.1 mg, Ex.1 twice weekly scheme, wk 13, 2.1 mg sc, read-out: AUC0-72 (gMean)) was 6.7 µM·h and the Cmax ([1]; 2.1 mg, Ex.1 twice weekly scheme, wk 13, 2.1 mg sc) was 108 nM. The AUC(0-t) ([1]; 2.4 mg, Ex.1 twice weekly scheme, wk 15, 2.4 mg sc, read-out: AUC0-72 (gMean)) was 7.62 µM·h, the Cmax ([1]; 2.4 mg, Ex.1 twice weekly scheme, wk 15, 2.4 mg sc) was 132 nM and the AUC(0-t) ([1]; 2.4 mg, Ex.1 twice weekly scheme, wk 16, 2.4 mg sc, read-out: AUC0-72 (gMean)) was 8.55 µM·h. It also gave a Cmax ([1]; 2.4 mg, Ex.1 twice weekly scheme, wk 16, 2.4 mg sc) of 142 nM, an AUC(0-t) ([1]; 2.4 mg, Ex.1 weekly scheme 2, wk 6, 2.4 mg sc, read-out: AUC0-168 (gMean)) of 8.19 µM·h and a Cmax ([1]; 2.4 mg, Ex.1 weekly scheme 2, wk 6, 2.4 mg sc) of 70.6 nM. The AUC(0-t) ([1]; 2.4 mg, Ex.1 weekly scheme 3, wk 5, 2.4 mg sc, read-out: AUC0-168 (gMean)) was 7.19 µM·h, the Cmax ([1]; 2.4 mg, Ex.1 weekly scheme 3, wk 5, 2.4 mg sc) was 63 nM and the AUC(0-t) ([1]; 2.4 mg, Ex.1 weekly scheme 4, wk 13, 2.4 mg sc, read-out: AUC0-168 (gMean)) was 10.3 µM·h. For the same molecule, the Cmax ([1]; 2.4 mg, Ex.1 weekly scheme 4, wk 13, 2.4 mg sc) was 88.3 nM, the AUC(0-t) ([1]; 2.4 mg, Ex.1 weekly scheme 4, wk 15, 2.4 mg sc, read-out: AUC0-168 (gMean)) was 10.9 µM·h and the Cmax ([1]; 2.4 mg, Ex.1 weekly scheme 4, wk 15, 2.4 mg sc) was 87.1 nM. For the same molecule, the AUC(0-t) ([1]; 2.4 mg, Ex.1 weekly scheme 4, wk 16, 2.4 mg sc, read-out: AUC0-168 (gMean)) was 11.5 µM·h, the Cmax ([1]; 2.4 mg, Ex.1 weekly scheme 4, wk 16, 2.4 mg sc) was 97.3 nM and the AUC(0-t) ([1]; 2.4 mg, Ex.1 weekly scheme 5, wk 7, 2.4 mg sc, read-out: AUC0-168 (gMean)) was 9.08 µM·h. The Cmax ([1]; 2.4 mg, Ex.1 weekly scheme 5, wk 7, 2.4 mg sc) was 77.8 nM, the AUC(0-t) ([1]; 3 mg, Ex.1 weekly scheme 3, wk 6, 3.0 mg sc, read-out: AUC0-168 (gMean)) was 10.4 µM·h and the Cmax ([1]; 3 mg, Ex.1 weekly scheme 3, wk 6, 3.0 mg sc) was 88.7 nM. For the same molecule, the AUC(0-t) ([1]; 3 mg, Ex.1 weekly scheme 5, wk 9, 3.0 mg sc, read-out: AUC0-168 (gMean)) was 11.3 µM·h, the Cmax ([1]; 3 mg, Ex.1 weekly scheme 5, wk 9, 3.0 mg sc) was 102 nM and the AUC(0-t) ([1]; 3.6 mg, Ex.1 weekly scheme 5, wk 11, 3.6 mg sc, read-out: AUC0-168 (gMean)) was 14.2 µM·h. The Cmax ([1]; 3.6 mg, Ex.1 weekly scheme 5, wk 11, 3.6 mg sc) was 129 nM, the AUC(0-t) ([1]; 4.2 mg, Ex.1 weekly scheme 5, wk 13, 4.2 mg sc, read-out: AUC0-168 (gMean)) was 15.9 µM·h and the Cmax ([1]; 4.2 mg, Ex.1 weekly scheme 5, wk 13, 4.2 mg sc) was 134 nM. It also gave an AUC(0-t) ([1]; 4.8 mg, Ex.1 weekly scheme 5, wk 15, 4.8 mg sc, read-out: AUC0-168 (gMean)) of 18.7 µM·h, a Cmax ([1]; 4.8 mg, Ex.1 weekly scheme 5, wk 15, 4.8 mg sc) of 161 nM and an AUC(0-t) ([1]; 4.8 mg, Ex.1 weekly scheme 5, wk 16, 4.8 mg sc, read-out: AUC0-168 (gMean)) of 19.7 µM·h. It also gave a Cmax ([1]; 4.8 mg, Ex.1 weekly scheme 5, wk 16, 4.8 mg sc) of 193 nM, a half-life [2] of about 110 h and an AUC(0-t) ([3]; 0.6 mg, Ex.2 DG2 weekly, wk 1, 0.6 mg sc) of 2.02 µM·h. For the same molecule, the AUC(0-t) ([3]; 0.6 mg, Ex.2 DG3 twice weekly, wk 3, 0.6 mg sc) was 1.64 µM·h, the AUC(0-t) ([3]; 0.9 mg, Ex.2 DG1 weekly, wk 3, 0.9 mg sc) was 3.62 µM·h and the AUC(0-t) ([3]; 0.9 mg, Ex.2 DG3 twice weekly, wk 5, 0.9 mg sc) was 3.52 µM·h. For the same molecule, the AUC(0-t) ([3]; 0.9 mg, Ex.2 DG3 twice weekly, wk 6, 0.9 mg sc) was 3.83 µM·h, the AUC(0-t) ([3]; 1.2 mg, Ex.2 DG2 weekly, wk 3, 1.2 mg sc) was 4.93 µM·h and the AUC(0-t) ([3]; 1.2 mg, Ex.2 DG3 twice weekly, wk 7, 1.2 mg sc) was 4.69 µM·h. It also gave an AUC(0-t) ([3]; 1.5 mg, Ex.2 DG1 weekly, wk 5, 1.5 mg sc) of 6.74 µM·h, an AUC(0-t) ([3]; 1.5 mg, Ex.2 DG3 twice weekly, wk 9, 1.5 mg sc) of 6.72 µM·h and an AUC(0-t) ([3]; 1.8 mg, Ex.2 DG1 weekly, wk 6, 1.8 mg sc) of 8.41 µM·h. It also gave an AUC(0-t) ([3]; 1.8 mg, Ex.2 DG1 weekly, wk 7, 1.8 mg sc) of 9.01 µM·h, an AUC(0-t) ([3]; 1.8 mg, Ex.2 DG1 weekly, wk 9, 1.8 mg sc) of 8.52 µM·h and an AUC(0-t) ([3]; 1.8 mg, Ex.2 DG1 weekly, wk 11, 1.8 mg sc) of 8.83 µM·h. It also gave an AUC(0-t) ([3]; 1.8 mg, Ex.2 DG1 weekly, wk 13, 1.8 mg sc) of 9.22 µM·h, an AUC(0-t) ([3]; 1.8 mg, Ex.2 DG1 weekly, wk 15, 1.8 mg sc) of 9.5 µM·h and an AUC(0-t) ([3]; 1.8 mg, Ex.2 DG1 weekly, wk 16, 1.8 mg sc) of 9.62 µM·h. It also gave an AUC(0-t) ([3]; 1.8 mg, Ex.2 DG2 weekly, wk 5, 1.8 mg sc) of 6.64 µM·h, an AUC(0-t) ([3]; 1.8 mg, Ex.2 DG2 weekly, wk 6, 1.8 mg sc) of 7.55 µM·h and an AUC(0-t) ([3]; 1.8 mg, Ex.2 DG3 twice weekly, wk 11, 1.8 mg sc) of 8.21 µM·h. The AUC(0-t) ([3]; 2.1 mg, Ex.2 DG3 twice weekly, wk 13, 2.1 mg sc) was 9.78 µM·h, the AUC(0-t) ([3]; 2.4 mg, Ex.2 DG2 weekly, wk 7, 2.4 mg sc) was 9.83 µM·h and the AUC(0-t) ([3]; 2.4 mg, Ex.2 DG3 twice weekly, wk 15, 2.4 mg sc) was 10.2 µM·h. It also gave an AUC(0-t) ([3]; 2.4 mg, Ex.2 DG3 twice weekly, wk 16, 2.4 mg sc) of 11.2 µM·h, an AUC(0-t) ([3]; 3 mg, Ex.2 DG2 weekly, wk 9, 3.0 mg sc) of 13.7 µM·h and an AUC(0-t) ([3]; 3.6 mg, Ex.2 DG2 weekly, wk 11, 3.6 mg sc) of 16.4 µM·h. It also gave an AUC(0-t) ([3]; 4.2 mg, Ex.2 DG2 weekly, wk 13, 4.2 mg sc) of 19.3 µM·h and an AUC(0-t) ([3]; 4.8 mg, Ex.2 DG2 weekly, wk 15, 4.8 mg sc) of 22.9 µM·h.
